# From paper PMC11054487, “Species-Specific Unbound Fraction Differences in Highly Bound PFAS: A Comparative Study across Human, Rat, and Mouse Plasma and Albumin” (Toxics, 2024)
# Legend:
# rat (Wistar-Han) plasma = test: Presaturation equilibrium dialysis, fraction unbound in rat plasma; type: in vitro ADME; design: fraction unbound at 18 h: dose or concentration left out as unconfirmed; details: 5 μM PFAS, 18 h, 37 °C, value (CV)
# Procedure: (§1) Each PFAS:matrix combination was assessed in quadruplicate.
# (§2) The injection volume for each sample was 5 µL.
# mouse (C57BL/6) plasma = test: Presaturation equilibrium dialysis, fraction unbound in C57BL/6 mouse plasma; type: in vitro ADME; design: fraction unbound at 18 h: dose or concentration left out as unconfirmed; details: 5 μM PFAS, 18 h, 37 °C, value (CV)
# Procedure: as §1, §2
# rat plasma = test system: rat plasma; design: method as in PMID 12499116; details: ultrafiltration method; cited from earlier work
# mouse (CD-1) plasma = test: Presaturation equilibrium dialysis, fraction unbound in CD-1 mouse plasma; type: in vitro ADME; design: fraction unbound at 18 h: dose or concentration left out as unconfirmed; details: 5 μM PFAS, 18 h, 37 °C, value (CV)
# Procedure: as §1, §2
# [1] = target: T1, human serum albumin (HSA) (Homo sapiens, UniProt P02768); test: Presaturation equilibrium dialysis, fraction unbound in human serum albumin solution; type: in vitro ADME; details: 4% human serum albumin in PBS, value (CV)
# T1 construct: purchased Sigma-Aldrich
# T1 sequence (P02768 25-609): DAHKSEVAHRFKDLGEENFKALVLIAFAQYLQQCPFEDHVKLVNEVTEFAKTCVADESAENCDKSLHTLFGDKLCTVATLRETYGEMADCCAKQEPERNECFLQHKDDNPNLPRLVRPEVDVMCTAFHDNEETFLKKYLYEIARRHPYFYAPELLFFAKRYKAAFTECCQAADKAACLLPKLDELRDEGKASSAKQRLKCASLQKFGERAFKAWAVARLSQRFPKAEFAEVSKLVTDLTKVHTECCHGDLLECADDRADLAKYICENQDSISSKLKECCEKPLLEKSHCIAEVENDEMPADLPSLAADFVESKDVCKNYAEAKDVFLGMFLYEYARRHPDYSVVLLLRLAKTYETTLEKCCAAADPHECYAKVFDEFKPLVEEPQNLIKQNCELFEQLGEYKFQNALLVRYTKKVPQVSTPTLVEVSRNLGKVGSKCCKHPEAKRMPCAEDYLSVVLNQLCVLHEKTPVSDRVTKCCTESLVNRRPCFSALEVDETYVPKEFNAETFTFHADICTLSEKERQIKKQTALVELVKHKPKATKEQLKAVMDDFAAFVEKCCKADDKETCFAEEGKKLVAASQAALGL
# Procedure: as §1, §2
# rat serum albumin (RSA) = rat serum albumin (RSA) (Rattus norvegicus, UniProt P02770); test: Presaturation equilibrium dialysis, fraction unbound in rat serum albumin solution; details: for fraction unbound at 18 h, 5 µM: rat
# Sequence of rat serum albumin (RSA) (P02770 25-608): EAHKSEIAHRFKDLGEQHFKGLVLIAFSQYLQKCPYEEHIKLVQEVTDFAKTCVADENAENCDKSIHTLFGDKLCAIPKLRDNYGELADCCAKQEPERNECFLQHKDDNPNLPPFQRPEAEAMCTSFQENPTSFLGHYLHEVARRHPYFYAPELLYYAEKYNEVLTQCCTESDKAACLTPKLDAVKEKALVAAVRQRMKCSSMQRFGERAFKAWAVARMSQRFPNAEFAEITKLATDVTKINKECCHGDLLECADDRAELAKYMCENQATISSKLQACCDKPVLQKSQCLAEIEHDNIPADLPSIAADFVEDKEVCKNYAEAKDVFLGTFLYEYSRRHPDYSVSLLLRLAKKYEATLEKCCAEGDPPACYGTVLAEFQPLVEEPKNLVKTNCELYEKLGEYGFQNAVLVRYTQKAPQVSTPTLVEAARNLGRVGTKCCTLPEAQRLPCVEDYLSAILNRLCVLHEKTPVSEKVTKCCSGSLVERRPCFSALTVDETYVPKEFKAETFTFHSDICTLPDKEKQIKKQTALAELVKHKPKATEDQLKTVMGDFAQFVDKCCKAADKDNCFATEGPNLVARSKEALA
# Procedure: (§3) The equilibrium dialysis device (EQD) HTD96 (Gales Ferry, CT, USA) was assembled according to manufacturer instructions. DPBS buffer solutions were prepared by adding PFAS with a concentration of either approximately five-fold of the estimated fu values based on initial available data or assumed to be 0.001 if no data was available. The dialysis apparatus and membranes assembled were pre-saturated (250 µL) three times in total with PFAS spiked DPBS buffer solution; twice for 1 h followed by a final 18-h pre-saturation. This same solution was used on the receiver side of the EQD. […] This 4% albumin was used in the albumin binding study to recapitulate plasma concentration, as human albumin concentration in plasma is 3.5–4.5 g/dL (530–680 µM). The matrix was diluted five-fold using DPBS for PFAS that had preliminary fu values lower than 0.01. Dimethylsulfoxide (DMSO) stock solutions of test PFAS were prepared at 500 μM and added to species-specific plasma or 4% albumin to a final concentration of 5 μM with 1% DMSO. Next, 150 μL of PFAS spiked DPBS was added to the receiver side of the membrane and 150 μL of compound spiked matrix was added to the donor side. […] Each PFAS:matrix combination was assessed in quadruplicate. For sample collection, 15 μL of buffer and 45 μL of matrix were sampled from the dialysis device into a 96-deep well plate and matrix-matched with either blank buffer or matrix. The samples were then quenched with 200 μL of cold acetonitrile containing internal standard (tolbutamide 30 nM and carbamazepine 12 nM) to precipitate proteins. Next, the plates were sealed and placed on a vortex mixer for 1 min, and then centrifuged (Beckman Coulter, Fullerton, CA, USA) at 3000 rpm for 5 min at room temperature. Lastly, the supernatant was transferred to a new 96-well plate, fully dried down under nitrogen gas, reconstituted with 200 µL of 50/50 (v/v) HPLC grade water/acetonitrile, and vortexed for 1 min prior to LC-MS/MS analysis.
# (§4) LC-MS/MS analyses were performed on a SCIEX Triple Quad 5500 mass spectrometer (SCIEX, Concord, ON, Canada) equipped with Turbo Ion Spray interface. […] All instruments were controlled and synchronized by SCIEX Analyst software (version 1.6.3). Mobile phases compositions were 0.1% formic acid in water (mobile phase A) and 0.1% formic acid in acetonitrile (mobile phase B). […] The column was equilibrated at 5% B for 0.5 min before injecting samples. The total run time for each injection was 6 min. The chromatographic separation was conducted on a Phenomenex Kinetex C18 100Å 30 × 2.1 mm column (Torrance, CA, USA) with a flow rate of 0.5 mL/min. The injection volume for each sample was 5 µL. Multiple-reaction-monitoring (MRM) mode using specific precursor/product ion transitions was used for quantification. Data processing was performed using SCIEX Analyst software (version 1.6.3).
# (§5) The calculations for fu are shown in Equations (1) and (2), where D is the dilution factor and fu,d is the diluted fu shown below. All calculations are based on area ratios (analyte peak area/IS peak area), and MS responses used for calculations were all in linear ranges. […] (1) Diluted fud=Receiver Area Ratio/Donor Area Ratio (2) Undiluted fu=1/D/1/fu,d−1+1/D
# (§6) Albumin concentrations for rodents have been reported in the literature as rat: 3.0 g/dL; CD-1 mice: 2.7 g/dL; C57BL/6 mice: 2.9 g/dL [53].
# [2] = target: mouse serum albumin (MSA) (Mus musculus, UniProt P07724); test: Presaturation equilibrium dialysis, fraction unbound in mouse serum albumin solution; details: for fraction unbound at 18 h, 5 µM: mouse
# Sequence of mouse serum albumin (MSA) (P07724 25-608): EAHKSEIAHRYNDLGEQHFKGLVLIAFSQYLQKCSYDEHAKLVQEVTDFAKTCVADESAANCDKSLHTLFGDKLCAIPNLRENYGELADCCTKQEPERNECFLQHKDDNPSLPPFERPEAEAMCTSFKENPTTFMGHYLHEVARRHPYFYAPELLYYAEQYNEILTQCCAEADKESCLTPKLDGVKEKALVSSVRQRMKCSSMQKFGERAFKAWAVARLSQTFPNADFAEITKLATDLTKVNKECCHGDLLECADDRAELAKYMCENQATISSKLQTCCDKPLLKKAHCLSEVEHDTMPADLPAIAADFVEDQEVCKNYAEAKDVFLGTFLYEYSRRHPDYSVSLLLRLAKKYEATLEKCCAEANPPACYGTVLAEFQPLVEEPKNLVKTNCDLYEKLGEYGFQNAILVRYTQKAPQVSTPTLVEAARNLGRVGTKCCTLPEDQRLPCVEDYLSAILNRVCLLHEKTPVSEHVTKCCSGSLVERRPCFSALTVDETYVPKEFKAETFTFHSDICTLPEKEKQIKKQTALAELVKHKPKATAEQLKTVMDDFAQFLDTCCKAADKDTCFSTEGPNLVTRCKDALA
# Procedure: as §3, §4, §5, §6
# human plasma = test: Presaturation equilibrium dialysis, fraction unbound in human plasma; type: in vitro ADME; design: fraction unbound at 18 h: dose or concentration left out as unconfirmed; details: 5 μM PFAS, 18 h, 37 °C, value (CV)
# Procedure: as §1, §2
# [3] = Presaturation equilibrium dialysis, fraction unbound in rat plasma; type: in vitro ADME; design: fraction unbound at 18 h: dose or concentration left out as unconfirmed; details: Wistar-Han rat plasma, 37 °C, value (CV), read-out: Fraction Unbound (fu) and Coefficient of Variance (CV), Rat Plasma
# Procedure: as §1, §2
# [4] = Presaturation equilibrium dialysis, fraction unbound in C57BL/6 mouse plasma; type: in vitro ADME; design: fraction unbound at 18 h: dose or concentration left out as unconfirmed; details: 37 °C, value (CV), read-out: Fraction Unbound (fu) and Coefficient of Variance (CV), C57BL/6 Plasma
# Procedure: as §1, §2
# [5] = Presaturation equilibrium dialysis, fraction unbound in CD-1 mouse plasma; type: in vitro ADME; design: fraction unbound at 18 h: dose or concentration left out as unconfirmed; details: 37 °C, value (CV), read-out: Fraction Unbound (fu) and Coefficient of Variance (CV), CD-1 Plasma
# Procedure: as §1, §2
# [6] = Presaturation equilibrium dialysis, fraction unbound in human plasma; type: in vitro ADME; design: fraction unbound at 18 h: dose or concentration left out as unconfirmed; details: human, 37 °C, value (CV), read-out: Fraction Unbound (fu) and Coefficient of Variance (CV), Human Plasma
# Procedure: as §1, §2
# [7] = humans; cited from earlier work
# [8] = 3% rat serum albumin, value (%CV)
# [9] = 4% rat serum albumin in PBS, 5 μM PFAS, value (CV)
# [10] = 3% mouse serum albumin, value (%CV)
# [11] = 4% mouse serum albumin in PBS, 5 μM PFAS, value (CV)
# [12] = isolated protein, Fraction unbound (fu) and %CV, RSA 3%, 3% rat serum albumin, value (%CV)
# [13] = isolated protein, Fraction unbound (fu) and %CV, MSA 3%, 3% mouse serum albumin, value (%CV)
# [14] = 4% rat serum albumin (RSA) solution, Fraction Unbound (fu) and Coefficient of Variance (CV), RSA, 4% rat serum albumin in PBS, 5 μM PFAS, value (CV)
# [15] = 4% mouse serum albumin (MSA) solution, Fraction Unbound (fu) and Coefficient of Variance (CV), MSA, 4% mouse serum albumin in PBS, 5 μM PFAS, value (CV)
Structure (SMILES),"Fraction Unbound (fu) and Coefficient of Variance (CV), Rat Plasma (rat (Wistar-Han) plasma)","Fraction Unbound (fu) and Coefficient of Variance (CV), C57BL/6 Plasma (mouse (C57BL/6) plasma)",bound (rat plasma),"Fraction Unbound (fu) and Coefficient of Variance (CV), CD-1 Plasma (mouse (CD-1) plasma)","Fraction unbound (fu) and %CV, RSA 3% (rat serum albumin (RSA); [8])","Fraction Unbound (fu) and Coefficient of Variance (CV), RSA (rat serum albumin (RSA); [9])","Fraction unbound (fu) and %CV, MSA 3% [2, 10]","Fraction Unbound (fu) and Coefficient of Variance (CV), MSA [2, 11]","Fraction Unbound (fu) and Coefficient of Variance (CV), Human Plasma (human plasma)",fraction unbound at 18 h [3],fraction unbound at 18 h [4],fraction unbound at 18 h [5],"fraction unbound at 18 h, 5 µM (rat serum albumin (RSA); [12])","fraction unbound at 18 h, 5 µM [2, 13]","fraction unbound at 18 h, 5 µM (rat serum albumin (RSA); [14])","fraction unbound at 18 h, 5 µM [2, 15]",also measured
"O=C(O)C(F)(F)C(F)(F)C(F)(F)C(F)(F)C(F)(F)C(F)(F)C(F)(F)C(F)(F)C(F)(F)F [PFDA, perfluorodecanoic acid]",0.001(9%),0.00127(9%),greater than 98%,0.0015(4%),0.000494 (19%),0.000608(19%),0.000839 (26%),0.00102(26%),0.000618(9%),–,–,–,–,–,–,–,"Fraction Unbound (fu) and Coefficient of Variance (CV), HSA ([1]; 5 μM PFAS): 0.000584(8%)"
"O=C(O)C(F)(F)C(F)(F)C(F)(F)C(F)(F)C(F)(F)C(F)(F)F [PFHpA, perfluoroheptanoic acid]",–,–,greater than 98%,–,–,–,–,–,–,0.00454,0.0323,0.0331,0.00257,0.00954,–,–,"fraction unbound at 18 h, 5 µM (rat serum albumin (RSA); isolated protein, Fraction Unbound (fu) and Coefficient of Variance (CV), RSA, 4% rat serum albumin in PBS, 5 μM PFAS, value (CV)): 0.00313; fraction unbound at 18 h, 5 µM ([2]; isolated protein, Fraction Unbound (fu) and Coefficient of Variance (CV), MSA, 4% mouse serum albumin in PBS, 5 μM PFAS, value (CV)): 0.0118; fraction unbound at 18 h ([6]; plasma): 0.00445"
"O=C(O)C(F)(F)C(F)(F)C(F)(F)C(F)(F)C(F)(F)C(F)(F)C(F)(F)C(F)(F)F [PFNA, perfluorononanoic acid]",0.0021(6%),0.00438(22%),greater than 98%,0.00455(6%),0.00217 (2%),0.00271(2%),0.00292 (6%),0.00364(6%),0.00187(3%),–,–,–,–,–,–,–,–
"O=C(O)C(F)(F)C(F)(F)C(F)(F)C(F)(F)C(F)(F)C(F)(F)C(F)(F)F [PFOA, perfluorooctanoic acid]",–,–,greater than 98%,–,–,–,–,–,–,–,–,–,0.00157,0.00411,0.00196,0.00513,"fraction unbound at 18 h, 5 µM ([3]; 5 μM PFAS): 0.00298; fraction unbound at 18 h, 5 µM ([4]; 5 μM PFAS): 0.0142; fraction unbound at 18 h, 5 µM ([5]; 5 μM PFAS): 0.0152; fraction unbound at 18 h, 5 µM ([1]; 4% human serum albumin (HSA) solution, 5 μM PFAS, read-out: Fraction Unbound (fu) and Coefficient of Variance (CV), HSA): 0.00285; t1/2 [7]: 2.3–5.4 years; fraction unbound at 18 h, 5 µM ([6]; 5 μM PFAS): 0.0025"
"NS(=O)(=O)C(F)(F)C(F)(F)C(F)(F)C(F)(F)C(F)(F)C(F)(F)C(F)(F)C(F)(F)F [PFOSA, perfluorooctanesulfonamide]",–,–,–,–,–,–,–,–,–,0.00197,0.0023,0.00326,0.000952,0.00102,0.00118,0.00127,"fraction unbound at 18 h ([1]; 4% human serum albumin (HSA) solution, read-out: Fraction Unbound (fu) and Coefficient of Variance (CV), HSA): 0.00152; fraction unbound at 18 h [6]: 0.0019"
